According to patent publication US11339171B2, “MDM2 inhibitors” (Gan & Lee Pharmaceuticals, priority 2017, dated 2022):
Several values for one entry are separate records, joined by “and”; a condition that tells them apart may be missing. Equal values may be shown once. Read-outs that look alike come from different tables or passages of the source.

Columns and labels:
MDM2 = molecular target: T1, MDM2 (Homo sapiens, UniProt Q00987); experiment: Inhibition test of MDM2-P53 (GST-MDM2, Biotin-P53, Anti-GST-Tb, SA-XL665); format: binding
T1 construct: made in house
T1 sequence (Q00987 whole entry): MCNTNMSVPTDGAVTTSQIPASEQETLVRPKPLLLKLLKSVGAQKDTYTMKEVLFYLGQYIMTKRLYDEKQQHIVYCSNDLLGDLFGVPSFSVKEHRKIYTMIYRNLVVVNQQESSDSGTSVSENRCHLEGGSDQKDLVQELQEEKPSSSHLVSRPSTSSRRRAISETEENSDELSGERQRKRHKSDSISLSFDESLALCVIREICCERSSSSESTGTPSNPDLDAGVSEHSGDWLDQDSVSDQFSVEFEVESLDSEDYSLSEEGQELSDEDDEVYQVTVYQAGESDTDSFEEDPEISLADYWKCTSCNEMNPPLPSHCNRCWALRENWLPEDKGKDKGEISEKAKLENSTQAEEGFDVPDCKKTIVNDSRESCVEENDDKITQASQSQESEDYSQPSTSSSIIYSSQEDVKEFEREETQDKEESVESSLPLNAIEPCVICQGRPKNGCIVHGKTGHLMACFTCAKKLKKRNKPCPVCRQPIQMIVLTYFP
Procedure, shortened: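 Binding was measured by TR-FRET with GST-MDM2 at 4 nM final in PBS with 0.1% BSA, 5 mM DTT and 1 mM AEBSF. Compounds were tested as twelve-point 5-fold dilutions and incubated with the detection mix for 90 min at 25 °C with shaking before plate-reader reading and curve fitting.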

[1] = tested on: human osteosarcoma cell line SJSA-1; experiment: Inhibition of proliferation of human osteosarcoma cell line SJSA-1 (DAPI staining, In Cell Analyzer); conditions: Homo sapiens, SJSA-1, 72 h, read-out: IC50 (nM), inhibitory activity on proliferation of human osteosarcoma cell line SJSA-1, SJSA-1, incubated 72 h
Protocol: 2.2 Experiment Preparation:
2.2.1 Preparation of a culture medium for human osteosarcoma cell line SJSA-1: RPMI1640+10% FBS+1% penicillin/streptomycin
2.2.2 Preparation of a test compound solution:
a. the test compound solution with a certain concentration was taken, and diluted with the culture medium to obtain a compound solution with a final concentration of 20 μM;
b. 200 μL of a culture medium containing 0.2% DMSO (dimethyl sulfoxide) was added into H2-H10 of a 96-well plate; 300 μl of the above solution was added into H1; and
c. 100 μL was taken out from well H1, added into H2, and mixed well; then 100 μl of the resultant solution was taken and added into H3, and dilution was carried out in sequence until H9 to obtain the 3-fold serial dilution of the test compound.
2.3 Experimental Process:
2.3.1 SJSA-1 cells were inoculated into a 96-well cell plate with black transparent bottom at 4000 cells/100 μl/well, and cultured overnight at 37° C.;
2.3.3 Fixation: the cell plate was taken out, the culture medium was removed, and 50 μL of 4% paraformaldehyde solution was added to each well to fix for 10 min;
2.3.4 50 μl of 0.1 M glycine was added to neutralize for 10 min;
2.3.5 Washing was performed with 1×PBS (phosphate buffer solution pH7.2) twice;
2.3.6 Permeabilization: 50 μL of 0.2% TritonX-100 (Triton) was added per well, and permeabilization was carried out at room temperature for 10 min;
2.3.7 Washing was performed with 1×PBS (phosphate buffer solution pH7.2) twice;
2.3.9 Washing was performed with 1×PBS (phosphate buffer solution pH7.2) for three times; and
2.3.10 Scanning and analysis were performed by In cell analyzer.
The inhibition rate of each compound at each concentration point was calculated according to the following formula, and curve fitting was performed by GraphPad Prism 6.0 software to obtain the IC50 value.

[2] = Pharmacokinetics in ICR mice after intravenous and intragastric administration; format: in vivo; conditions: for MRT last: read-out: MRT(0-t); for MRT inf: read-out: MRT(0-∞); for Tmax: read-out: Tmax; for Vd: read-out: Vz
Procedure, shortened: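 Plasma concentrations by LC-MS/MS (range 1 to 2000 ng/ml) following single intravenous (2 mg/kg) or oral gavage (5 mg/kg) dosing of fasted male ICR mice, three per group. Vehicle 5% DMSO + 40% PEG400 + 55% (10% HP-β-CD in saline); standard PK parameters including bioavailability calculated.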

[3] = ICR mice, IV 2 mg/kg, individual animals 301-303, 2 mg/kg
[4] = ICR mice, PO 5 mg/kg, individual animals 401-403, 5 mg/kg
[5] = male, ICR, mouse, plasma, iv, 2 mg/kg, ICR mice, IV 2 mg/kg, individual animals 301-303
[6] = male, ICR, mouse, plasma, iv, 2 mg/kg, ICR mice, IV 2 mg/kg, mean of 3 animals
[7] = male, ICR, mouse, plasma, po, 5 mg/kg, ICR mice, PO 5 mg/kg, individual animals 401-403
[8] = male, ICR, mouse, plasma, po, 5 mg/kg, ICR mice, PO 5 mg/kg, mean of 3 animals

Compound: COc1cc(OC(C)C)ncc1-c1nc2c(n1C(C)C)[C@@]1(C(=O)Nc3cc(Cl)ccc31)N(c1cc(Cl)cnc1C)C2=O [Example S-137, (S)-6-chloro-5′-(5-chloro-2-methylpyridin-3-yl)-2′-(6-isopropoxy-4-methoxypyridin-3-yl)-3′-isopropyl-3′H-spiro[dihydroindole-3,4′-pyrrolo[3,4-d]imidazole]-2,6′(5′H)-dione]
- IC50 (MDM2): 1.65 nM
- IC50 [1]: 65.9 nM
- AUC(0-t) [2, 3]: 15555.08 ng·h/mL and 10168.14 ng·h/mL
- AUC(0-∞) [2, 3]: 15581.80 ng·h/mL and 10938.18 ng·h/mL
- CL [2, 3]: 2.14 mL/min/kg and 3.05 mL/min/kg
- Cmax [2, 3]: 5945.51 ng/mL and 5653.28 ng/mL
- MRT(0-t) [2, 3]: 2.84 h and 1.50 h
- MRT(0-∞) [2, 3]: 2.88 h and 1.97 h
- Vz [2, 3]: 0.52 L/kg and 0.41 L/kg
- t1/2 [2, 3]: 2.79 h and 1.57 h
- F* ([2]; ICR mice, PO 5 mg/kg vs IV 2 mg/kg, mean): 53.35%
- AUC(0-t) [2, 4]: 16097.34 ng·h/mL and 14779.57 ng·h/mL
- AUC(0-∞) [2, 4]: 17159.38 ng·h/mL and 15367.65 ng·h/mL
- Cmax [2, 4]: 5542.83 ng/mL and 6791.01 ng/mL
- MRT(0-t) [2, 4]: 2.31 h and 2.03 h
- MRT(0-∞) [2, 4]: 2.84 h and 2.35 h
- t1/2 [2, 4]: 1.98 h and 1.69 h
- AUC(0-inf) [2, 5]: 9740 ng·h/mL
- clearance [2, 5]: 3.42 mL/min/kg
- AUC(0-t) ([2]; male, ICR, mouse, plasma, iv, 2 mg/kg, ICR mice, IV 2 mg/kg, individual animals 301-303, read-out: AUC(0-t)): 8960 ng·h/mL
- Cmax ([2]; male, ICR, mouse, plasma, iv, 2 mg/kg, ICR mice, IV 2 mg/kg, individual animals 301-303, read-out: Cmax): 5260 ng/mL
- MRT last [2, 5]: 1.51 h
- MRT inf [2, 5]: 2.06 h
- Tmax [2, 5]: 0.08 h
- Vd [2, 5]: 0.5 L/kg
- half-life ([2]; male, ICR, mouse, plasma, iv, 2 mg/kg, ICR mice, IV 2 mg/kg, individual animals 301-303, read-out: t1/2 (converted)): 1.68 h
- AUC(0-inf) [2, 6]: 12100 ng·h/mL
- clearance [2, 6]: 2.87 mL/min/kg
- AUC(0-t) ([2]; male, ICR, mouse, plasma, iv, 2 mg/kg, ICR mice, IV 2 mg/kg, mean of 3 animals, read-out: AUC(0-t)): 11600 ng·h/mL
- Cmax ([2]; male, ICR, mouse, plasma, iv, 2 mg/kg, ICR mice, IV 2 mg/kg, mean of 3 animals, read-out: Cmax): 5620 ng/mL
- MRT last [2, 6]: 1.95 h
- MRT inf [2, 6]: 2.3 h
- Tmax [2, 6]: 0.083 h
- Vd [2, 6]: 0.48 L/kg
- half-life ([2]; male, ICR, mouse, plasma, iv, 2 mg/kg, ICR mice, IV 2 mg/kg, mean of 3 animals, read-out: t1/2 (converted)): 2.01 h
- AUC(0-inf) [2, 7]: 16200 ng·h/mL
- AUC(0-t) ([2]; male, ICR, mouse, plasma, po, 5 mg/kg, ICR mice, PO 5 mg/kg, individual animals 401-403, read-out: AUC(0-t)): 15400 ng·h/mL
- Cmax ([2]; male, ICR, mouse, plasma, po, 5 mg/kg, ICR mice, PO 5 mg/kg, individual animals 401-403, read-out: Cmax): 5880 ng/mL
- MRT last [2, 7]: 2.28 h
- MRT inf [2, 7]: 2.7 h
- Tmax [2, 7]: 0.5 h
- half-life ([2]; male, ICR, mouse, plasma, po, 5 mg/kg, ICR mice, PO 5 mg/kg, individual animals 401-403, read-out: t1/2 (converted)): 1.85 h
- AUC(0-inf) [2, 8]: 16200 ng·h/mL
- AUC(0-t) ([2]; male, ICR, mouse, plasma, po, 5 mg/kg, ICR mice, PO 5 mg/kg, mean of 3 animals, read-out: AUC(0-t)): 15400 ng·h/mL
- Cmax ([2]; male, ICR, mouse, plasma, po, 5 mg/kg, ICR mice, PO 5 mg/kg, mean of 3 animals, read-out: Cmax): 6070 ng/mL
- MRT last [2, 8]: 2.21 h
- MRT inf [2, 8]: 2.63 h
- Tmax [2, 8]: 0.5 h
- half-life ([2]; male, ICR, mouse, plasma, po, 5 mg/kg, ICR mice, PO 5 mg/kg, mean of 3 animals, read-out: t1/2 (converted)): 1.84 h
- AUC(0-t) ([2]; male, ICR, mouse, plasma, po, 5 mg/kg, oral intragastric administration 5 mg/kg, read-out: AUC0-t): 15400 ng·h/mL
- half-life ([2]; male, ICR, mouse, plasma, po, 5 mg/kg, oral intragastric administration 5 mg/kg, read-out: half-life (converted)): 1.84 h
